# Where two headings read alike, the source gives them in different places.
# Legend:
# wheat powdery mildew = assay: Protective activity in vivo (whole plant spray) against wheat powdery mildew; conditions: 100 mg/L, comparative test (Table 130); for inhibition at 100 µg/mL: Triticum aestivum
# Experimental: (§1) The method is as followed: The whole plant is used in this test. The compound is dissolved in a proper solvent to get mother solution. The proper solvent is selected from acetone, methanol, DMF and so on according to their dissolving capability to the sample. The volume rate of solvent and testing solution (v/v) is equal to or less than 5%. […] The testing solution is sprayed to the host plant by a special plant sprayer. The plant is inoculated with fungus after 24 hours. According to the infecting characteristic of fungus, the plant is stored in a humidity chamber and then transferred into greenhouse after infection is finished. And the other plants are placed in greenhouse directly.
# carmine spider mite = assay: Bioactivity test against carmine spider mite (airbrush spray); type: in vivo; conditions: contrastive test (Table 135)
# Experimental: (§2) Compounds were dissolved in mixed solvent (acetone:methanol=1:1), and diluted to required concentration with water containing 0.1% of tween 80.
# (§3) Diamond back moth, armyworm, peach aphid and carmine spider mite were used as targets and the method of spraying by airbrush was used for determination of insecticidal biassays.
# The method: Broadbean shoots with two true leaves in pot were taken, the healthy adults of carmine spider mite were inoculated to the leaves. The adults were counted and then sprayed with airbrush at the pressure of 0.7 kg/cm^2 and at dose of 0.5 ml. 3 replicates were set for each treatment. And then they were maintained in standard observation room. Scores were conducted and mortalities were calculated after 72 hrs.
# [1] = system: Green peach aphids (Myzus Persicae Sulzer); assay: Bioactivity test against green peach aphid (airbrush foliar spray); type: in vivo; conditions: 100 mg/L, contrastive test (Table 134)
# Experimental: as §2, §3
# Method: Filter papers were put in culture dishes (Diameter=6 cm), and water was dripped on filter papers for preserving moisture. Green peach aphids (Myzus Persicae Sulzer) were maintained on cabbage. Leaves (Diameter=3 cm) of approximately 15-30 aphids were put in the culture dishes. Bioactivity tests were used the method of Airbrush Foliar Spray, pressure=10 psi (0.7 kg/cm2), spray volume=0.5 mL. The studies were conducted at […] 25±1 C in incubator cabinets with 60±5% RH. Survey the survival aphids after 48 h and calculate the death rates.
# cucumber anthracnose = assay: Protective activity in vivo (whole plant spray) against cucumber anthracnose; conditions: for inhibition at 100 µg/mL: Cucumis sativus, read-out: protective activity (%) against cucumber anthracnose; for control against cucumber anthracnose: 6.25 ppm, protective, in vivo
# Experimental: as §1
# cucumber downy mildew = assay: Protective activity in vivo (whole plant spray) against cucumber downy mildew; conditions: for inhibition at 25 µg/mL: Cucumis sativus, read-out: protective activity (%) against cucumber downy mildew
# Experimental: as §1
# diamond back moth = assay: Bioactivity test against diamond back moth (airbrush spray, leaf disc); type: in vivo; conditions: for Insecticidal activity against diamond back moth (%): 600 mg/L, contrastive test (Table 133)
# Experimental: as §2, §3
# The method of spraying by airbrush: The cabbage leaves were made into plates of 2 cm diameter by use of punch. A test solution (0.5 ml) was sprayed by airbrush at the pressure of 0.7 kg/cm^2 to both sides of every plate. 10 Second instar larvae were put into the petri-dishes after the leaf disc air-dried and 3 replicates were set for each treatment. Then the insects were maintained in observation room (25° C., 60˜70% R.H.). Scores were conducted and mortalities were calculated after 72 h.
# cucumber gray mold = assay: Fungicidal activity in vitro (96-well, inhibition rate) against cucumber gray mold; type: cell-based; conditions: 24 hours
# rice blast = assay: microbe, parasite or virus in culture; type: cell-based; conditions: Pyricularia oryzae, 24 h, read-out: inhibition rate against rice blast
# corn rust = assay: Protective activity in vivo (whole plant spray) against corn rust; conditions: comparative test (Table 131)
# Experimental: as §1
# [2] = 100 mg/L, comparative test (Table 132)
# [3] = 25 mg/L, comparative test (Table 129)
compound,measurement,setting,value
FC(F)(F)c1ccc(-n2ccc(OCCCNc3ncnc4scc(Cl)c34)n2)cc1 [Compound 128-69],protective activity (%) against wheat powdery mildew,wheat powdery mildew,100%
Cc1cc(N(C)Cc2cnn(-c3ccccc3)c2)nc(C(C)C)n1 [CK4],Insecticidal activity against carmine spider mite (%),carmine spider mite; 600 mg/L,59%
same,Insecticidal activity against peach aphid (%),[1],0%
same,inhibition at 100 µg/mL,cucumber anthracnose; [2],0%
same,inhibition at 25 µg/mL,cucumber downy mildew; [3],0%
same,Insecticidal activity against diamond back moth (%),diamond back moth,0%
same,inhibition at 100 µg/mL,wheat powdery mildew,0%
same,inhibition at 25 ppm,cucumber gray mold,0%
same,inhibition at 25 ppm,rice blast,0%
same,control effect against corn rust (%),corn rust; 25 mg/L,0%
same,control effect against corn rust (%),corn rust; 100 mg/L,0%
Cc1nc(C)c(C)c(N(C)Cc2cnn(-c3ccccc3)c2)n1 [CK3],Insecticidal activity against carmine spider mite (%),carmine spider mite; 600 mg/L,56%
same,Insecticidal activity against peach aphid (%),[1],30%
same,inhibition at 100 µg/mL,cucumber anthracnose; [2],0%
same,inhibition at 25 µg/mL,cucumber downy mildew; [3],0%
same,Insecticidal activity against diamond back moth (%),diamond back moth,0%
same,inhibition at 100 µg/mL,wheat powdery mildew,0%
same,inhibition at 25 ppm,cucumber gray mold,0%
same,inhibition at 25 ppm,rice blast,0%
same,control effect against corn rust (%),corn rust; 25 mg/L,0%
same,control effect against corn rust (%),corn rust; 100 mg/L,20%
FC(F)(F)c1ccc(-n2ccc(OCCCNc3ncnc4ccccc34)n2)cc1 [Compound 127-69],protective activity (%) against cucumber anthracnose,cucumber anthracnose; [2],92%
same,protective activity (%) against cucumber downy mildew,cucumber downy mildew; [3],70%
same,protective activity (%) against wheat powdery mildew,wheat powdery mildew,100%
CCc1ncnc(NCc2cnn(-c3ccccc3)c2C(F)(F)F)c1Cl [CK2],inhibition at 25 µg/mL,cucumber downy mildew; [3],20%
same,Insecticidal activity against diamond back moth (%),diamond back moth,20%
same,inhibition at 100 µg/mL,wheat powdery mildew,50%
same,inhibition at 25 ppm,cucumber gray mold,0%
same,inhibition at 25 ppm,rice blast,0%
CCc1ncnc(NCCOc2ccn(-c3c(Cl)cc(Cl)cc3Cl)n2)c1Cl [Compound 32-30],protective activity (%) against cucumber downy mildew,cucumber downy mildew; [3],100%
same,protective activity (%) against wheat powdery mildew,wheat powdery mildew,100%
Clc1ccc(-n2ccc(OCCNc3ncnc4ccccc34)n2)c(Cl)c1 [Compound 40-21],protective activity (%) against cucumber downy mildew,cucumber downy mildew; [3],100%
Fc1ccc(-n2ccc(OCCNc3ncnc4ccccc34)n2)cc1 [Compound 40-4],protective activity (%) against cucumber downy mildew,cucumber downy mildew; [3],100%
FC(F)(F)c1ccc(-n2ccc(OCCNc3ncnc4scc(Cl)c34)n2)cc1 [Compound 42-69],protective activity (%) against cucumber anthracnose,cucumber anthracnose; [2],95%
same,protective activity (%) against cucumber downy mildew,cucumber downy mildew; [3],80%
same,protective activity (%) against wheat powdery mildew,wheat powdery mildew,100%
same,control effect against corn rust (%),corn rust; 25 mg/L,85%
same,control effect against corn rust (%),corn rust; 100 mg/L,90%
CCc1ncnc(NC(C)COc2ccn(-c3ccc(Cl)cc3)n2)c1Cl (stereo not drawn) [Compound 37-19],Insecticidal activity against carmine spider mite (%),carmine spider mite; 100 mg/L,100%
same,Insecticidal activity against carmine spider mite (%),carmine spider mite; 600 mg/L,100%
same,Insecticidal activity against peach aphid (%),[1],84%
same,Insecticidal activity against diamond back moth (%),diamond back moth,100%
same,control against diamond back moth,"diamond back moth; 600 ppm, mortality after 72 h",100%
same,protective activity (%) against wheat powdery mildew,wheat powdery mildew,95%
same,control effect against corn rust (%),corn rust; 25 mg/L,90%
same,control effect against corn rust (%),corn rust; 100 mg/L,100%
Cc1ncnc(NCCOc2ccn(-c3c(Cl)cc(Cl)cc3Cl)n2)c1Cl [Compound 31-30],protective activity (%) against cucumber downy mildew,cucumber downy mildew; [3],100%
same,protective activity (%) against wheat powdery mildew,wheat powdery mildew,98%
Cc1cc(N(C)Cc2c(C)nn(-c3ccccc3)c2C)nc(C)n1 [CK5],Insecticidal activity against carmine spider mite (%),carmine spider mite; 600 mg/L,58%
same,Insecticidal activity against peach aphid (%),[1],22%
same,inhibition at 100 µg/mL,cucumber anthracnose; [2],0%
same,inhibition at 25 µg/mL,cucumber downy mildew; [3],0%
same,Insecticidal activity against diamond back moth (%),diamond back moth,0%
same,inhibition at 100 µg/mL,wheat powdery mildew,0%
same,inhibition at 25 ppm,cucumber gray mold,0%
same,inhibition at 25 ppm,rice blast,0%
same,control effect against corn rust (%),corn rust; 25 mg/L,60%
same,control effect against corn rust (%),corn rust; 100 mg/L,70%
CCc1ncnc(NCc2cnn(-c3ccccc3)c2C)c1Cl [CK1],Insecticidal activity against peach aphid (%),[1],0%
same,inhibition at 25 µg/mL,cucumber downy mildew; [3],20%
same,Insecticidal activity against diamond back moth (%),diamond back moth,43%
same,inhibition at 25 ppm,cucumber gray mold,0%
same,inhibition at 25 ppm,rice blast,0%
FC(F)c1ncnc(NCCCOc2ccn(-c3ccc(C(F)(F)F)cc3)n2)c1Cl [Compound 126-69],protective activity (%) against cucumber anthracnose,cucumber anthracnose; [2],95%
same,protective activity (%) against cucumber downy mildew,cucumber downy mildew; [3],70%
same,protective activity (%) against wheat powdery mildew,wheat powdery mildew,100%
Clc1cc(Cl)c(-n2ccc(OCCNc3ncnc4ccccc34)n2)c(Cl)c1 [Compound 40-30],protective activity (%) against cucumber downy mildew,cucumber downy mildew; [3],100%
Clc1ccc(-n2ccc(OCCNc3ncnc4ccccc34)n2)cc1 [Compound 40-19],protective activity (%) against cucumber anthracnose,cucumber anthracnose; [2],100%
same,protective activity (%) against cucumber downy mildew,cucumber downy mildew; [3],96%
Cc1c(Cl)ncnc1NCCCOc1ccn(-c2ccc(C(F)(F)F)cc2)n1 [Compound 122-69],protective activity (%) against cucumber anthracnose,cucumber anthracnose; [2],85%
same,protective activity (%) against wheat powdery mildew,wheat powdery mildew,100%
Clc1csc2ncnc(NCCOc3ccn(-c4ccccc4)n3)c12 [Compound 42-1],protective activity (%) against cucumber anthracnose,cucumber anthracnose; [2],95%
same,control against cucumber anthracnose,cucumber anthracnose,90%
same,protective activity (%) against cucumber downy mildew,cucumber downy mildew; [3],100%
Cc1ncnc(NCCOc2ccn(-c3c(Cl)cccc3Cl)n2)c1Cl [Compound 31-23],protective activity (%) against cucumber downy mildew,cucumber downy mildew; [3],100%
Cc1ccc(-n2ccc(OCCNc3ncnc4ccccc34)n2)cc1 [Compound 40-57],protective activity (%) against cucumber anthracnose,cucumber anthracnose; [2],98%
same,control against cucumber anthracnose,cucumber anthracnose,90%
Clc1cccc(-n2ccc(OCCNc3ncnc4scc(Cl)c34)n2)c1 [Compound 42-18],protective activity (%) against cucumber downy mildew,cucumber downy mildew; [3],100%
Clc1ccccc1-n1ccc(OCCNc2ncnc3scc(Cl)c23)n1 [Compound 42-17],protective activity (%) against cucumber downy mildew,cucumber downy mildew; [3],100%
Clc1cccc(-n2ccc(OCCNc3ncnc4ccccc34)n2)c1 [Compound 40-18],protective activity (%) against cucumber downy mildew,cucumber downy mildew; [3],100%
COc1c(Cl)ncnc1NCCCOc1ccn(-c2ccc(C(F)(F)F)cc2)n1 [Compound 123-69],protective activity (%) against cucumber anthracnose,cucumber anthracnose; [2],90%
same,protective activity (%) against wheat powdery mildew,wheat powdery mildew,100%
Clc1ccccc1-n1ccc(OCCNc2ncnc3ccccc23)n1 [Compound 40-17],inhibition at 25 µg/mL,cucumber downy mildew,70%
same,melting point,,186.6 °C
CC(COc1ccn(-c2ccc(Cl)cc2)n1)Nc1ncnc(Cl)c1Cl (stereo not drawn) [Compound 35-19],protective activity (%) against cucumber downy mildew,cucumber downy mildew; [3],100%
same,protective activity (%) against wheat powdery mildew,wheat powdery mildew,70%
Clc1ccc(-n2ccc(OCCNc3ncnc4scc(Cl)c34)n2)c(Cl)c1 [Compound 42-21],protective activity (%) against cucumber downy mildew,cucumber downy mildew; [3],100%
Cc1ncnc(NCCOc2ccn(-c3ccc(Cl)cc3)n2)c1Cl [Compound 31-19],inhibition at 100 µg/mL,cucumber anthracnose,90%
same,inhibition at 25 µg/mL,cucumber downy mildew,100%
CCc1ncnc(NCCCOc2ccn(-c3ccc(C(F)(F)F)cc3)n2)c1Cl [Compound 125-69],protective activity (%) against wheat powdery mildew,wheat powdery mildew,100%
c1ccc(-n2ccc(OCCNc3ncnc4ccccc34)n2)cc1 [Compound 40-1],protective activity (%) against cucumber downy mildew,cucumber downy mildew; [3],70%
CC(COc1ccn(-c2ccc(Cl)cc2)n1)Nc1ncnc2scc(Cl)c12 (stereo not drawn) [Compound 44-19],Insecticidal activity against carmine spider mite (%),carmine spider mite; 100 mg/L,100%
same,Insecticidal activity against carmine spider mite (%),carmine spider mite; 600 mg/L,100%
same,inhibition at 25 µg/mL,cucumber downy mildew; [3],100%
same,inhibition at 100 µg/mL,wheat powdery mildew,100%
same,inhibition at 25 ppm,cucumber gray mold,> 80%
same,inhibition at 2.8 ppm,rice blast,> 80%
same,inhibition at 8.3 ppm,rice blast,> 80%
same,inhibition at 25 ppm,rice blast,> 80%
